# Where a name gives a salt, the structure may show the parent alone.
# Assay: Excretion and recovery of radioactivity after single oral administration, target dose 1 mg free base/kg
# Type: in vivo, male Sprague Dawley rats
# Parameters: Excretion of Radioactivity, Urine / Excretion of Radioactivity, Cage Wash: unit not given beside the values
# Details: for Recovery of Radioactivity, Carcass / Recovery of Radioactivity, GI Tract: at 168 hours
# Text: [^14C] N,N,-diethyl-8,8-dipropyl-2-azaspiro[4,5]decane-2-propanamine dimaleate salt, (“Compound II”) with a specific activity of 91 uCi/mg and chemical purity >99%, and non-radiolabeled dimaleate salt of N,N,-diethyl-8,8-dipropyl-2-azaspiro[4,5]decane-2-propanamine dimaleate (Compound 1) chemical purity >98%, respectively, were used in this study. The site of the radiocarbon label in Compound II is depicted by an asterisk in Formula II. The non-radiolabeled material was used for reference purposes. The radiolabeled material was stored at ca −80° C. in the dark and the non-radiolabeled material at ca −20° C. in the dark.
# Three healthy male Sprague Dawley rats (Crl:CD(SD)BR), age ca 8-9 weeks, body weights at dosing 237-255 g, were supplied by Charles River (UK) Limited. The animals were housed in holding cages suitable for this species for 8 days prior to use. SDS Rat and Mouse Maintenance Diet No. 1, (Special Diets Services, Witham Essex), and mains quality water were available ad libitum throughout. The diet and water supplied to the animals were routinely analyzed for quality and no problems were detected. Holding and study areas had automatic control of light cycle and temperature. The actual range of temperature measured during the study was 17-25° C. with relative humidity measured at 60%.
# The dose was prepared for oral administration on the day of dosing. […]
# For each rat, an aliquot of the dose solution was administered orally by gavage. […] For each dose, the combined weight of dose and dosing equipment were recorded prior to dosing and the discharged dosing equipment was weighed after dosing. The concentration of radioactive material in each dose solution was also determined.
# Immediately following dosing, the rats were placed into all glass metabolism cages suitable for the quantitative collection of excreta and expired air. All samples were collected into individual, uniquely labeled containers.
# […] The collection containers were cooled by solid CO2 during the first 48 hours after dosing.
# […] Collection containers were cooled by solid CO2 during the first 48 hours.
# At the time of each feces collection, each cage was washed with water (ca 750 mL) and the washings were retained for radioassay. During the periods 0-24 h and 24-48 hours after dosing, expired air was passed through 2 serial traps containing ethanolamine:ethoxyethaonol (3:7, v/v) in order to effect the removal of CO2. The trap solvent was sampled for radioassay at the end of each collection period.
# At 168 hours post dose, each animal was killed by CO2 narcosis and cervical dislocation. Gastrointestinal tracts were removed and retained separately from the carcasses in preparation for radioassay.
# Duplicate aliquots of urine (ca 0.3 mL) and cage washings (ca 1 mL) were dispensed, diluted to 1 mL with distilled water (if considered necessary) and mixed with Quickzint 1 scintillation fluid (10 mL; Zinsser Analytic Maidenhead, UK).
# Feces were homogenised in 1 to 2 volumes of water with the sample and homogenate weight recorded. Duplicate aliquots (ca 0.3 ) were taken from each sample and dispensed onto combustopads contained in combustocones (Canberra Packard Limited, Pangbourne, UK). When dry, these samples were combusted using a Packard Tri-Carb 306 Automatic Sample Oxidiser. The resultant ^14CO2 generated was collected by absorption in Carbo-Sorb® (8 mL; Canberra Packard Limited) to which Permafluor®E^+ scintillation fluid (10 mL; Canberra Packard Limited) was added.
# For each rat, the carcass and gastro-intestinal tract with contents were solubilised in Soluene 350 (Canberra Packard). When dissolved, portions of the digest (ca 0.1 mL) were taken for liquid scintillation spectrometry. The volume was made up to 1 mL by the addition of methanol then 10 mL Quickzint was added and the samples counted as for the other liquid samples. […]
# [1] = 168 hour collection period, #3 male
compound,measurement,setting,value
"CCCC1(CCC)CCC2(CCN(CCCN(CC)CC)C2)CC1 [Compound II, [^14C] N,N,-diethyl-8,8-dipropyl-2-azaspiro[4,5]decane-2-propanamine dimaleate salt]","Excretion of Radioactivity, Urine","0-6 hours, #1 male",0.1
same,"Excretion of Radioactivity, Urine","0-6 hours, #2 male",0.1
same,"Excretion of Radioactivity, Urine","0-6 hours, #3 male",0.1
same,"Excretion of Radioactivity, Cage Wash","0-24 hours, #1 male",0.1
same,"Excretion of Radioactivity, Feces","0-24 hours, #1 male",18.2
same,"Excretion of Radioactivity, Cage Wash","0-24 hours, #2 male",0.1
same,"Excretion of Radioactivity, Feces","0-24 hours, #2 male",14.7
same,"Excretion of Radioactivity, Cage Wash","0-24 hours, #3 male",*<0.1
same,"Excretion of Radioactivity, Feces","0-24 hours, #3 male",17.7
same,"Excretion of Radioactivity, Cage Wash","0-24 hours, Mean",^+0.1
same,"Excretion of Radioactivity, Feces","0-24 hours, Mean",16.9
same,Dose recovered in expired air,0-48 hours,Less than 0.2 % of the dose
same,"Excretion of Radioactivity, Cage Wash","0-168 hours, #1 male",0.7
same,"Excretion of Radioactivity, Feces","0-168 hours, #1 male",64.0
same,"Excretion of Radioactivity, Urine","0-168 hours, #1 male",6.9
same,"Excretion of Radioactivity, Cage Wash","0-168 hours, #2 male",1.0
same,"Excretion of Radioactivity, Feces","0-168 hours, #2 male",65.7
same,"Excretion of Radioactivity, Urine","0-168 hours, #2 male",8.9
same,"Excretion of Radioactivity, Cage Wash","0-168 hours, #3 male",1.3
same,"Excretion of Radioactivity, Feces","0-168 hours, #3 male",66.7
same,"Excretion of Radioactivity, Urine","0-168 hours, #3 male",9.8
same,"Excretion of Radioactivity, Cage Wash","0-168 hours, Mean",1.0
same,"Excretion of Radioactivity, Feces","0-168 hours, Mean",65.5
same,"Excretion of Radioactivity, Urine","0-168 hours, Mean",8.5
same,"Excretion of Radioactivity, Urine","6-24 hours, #1 male",0.4
same,"Excretion of Radioactivity, Urine","6-24 hours, #2 male",0.5
same,"Excretion of Radioactivity, Urine","6-24 hours, #3 male",0.5
same,"Excretion of Radioactivity, Urine","6-24 hours, Mean",0.5
same,"Excretion of Radioactivity, Cage Wash","24-48 hours, #1 male",0.1
same,"Excretion of Radioactivity, Feces","24-48 hours, #1 male",16.3
same,"Excretion of Radioactivity, Urine","24-48 hours, #1 male",1.0
same,"Excretion of Radioactivity, Cage Wash","24-48 hours, #2 male",<0.1
same,"Excretion of Radioactivity, Feces","24-48 hours, #2 male",17.2
same,"Excretion of Radioactivity, Urine","24-48 hours, #2 male",1.4
same,"Excretion of Radioactivity, Cage Wash","24-48 hours, #3 male",0.1
same,"Excretion of Radioactivity, Feces","24-48 hours, #3 male",14.5
same,"Excretion of Radioactivity, Urine","24-48 hours, #3 male",1.4
same,"Excretion of Radioactivity, Cage Wash","24-48 hours, Mean",0.1
same,"Excretion of Radioactivity, Feces","24-48 hours, Mean",16.0
same,"Excretion of Radioactivity, Urine","24-48 hours, Mean",1.3
same,"Excretion of Radioactivity, Cage Wash","48-72 hours, #1 male",<0.1
same,"Excretion of Radioactivity, Feces","48-72 hours, #1 male",10.0
same,"Excretion of Radioactivity, Urine","48-72 hours, #1 male",1.2
same,"Excretion of Radioactivity, Cage Wash","48-72 hours, #2 male",0.2
same,"Excretion of Radioactivity, Feces","48-72 hours, #2 male",15.2
same,"Excretion of Radioactivity, Urine","48-72 hours, #2 male",1.5
same,"Excretion of Radioactivity, Cage Wash","48-72 hours, #3 male",0.2
same,"Excretion of Radioactivity, Feces","48-72 hours, #3 male",12.7
same,"Excretion of Radioactivity, Urine","48-72 hours, #3 male",1.7
same,"Excretion of Radioactivity, Cage Wash","48-72 hours, Mean",0.1
same,"Excretion of Radioactivity, Feces","48-72 hours, Mean",12.6
same,"Excretion of Radioactivity, Urine","48-72 hours, Mean",1.5
same,"Excretion of Radioactivity, Cage Wash","72-96 hours, #1 male",0.1
same,"Excretion of Radioactivity, Feces","72-96 hours, #1 male",7.5
same,"Excretion of Radioactivity, Urine","72-96 hours, #1 male",1.3
same,"Excretion of Radioactivity, Cage Wash","72-96 hours, #2 male",0.2
same,"Excretion of Radioactivity, Feces","72-96 hours, #2 male",7.8
same,"Excretion of Radioactivity, Urine","72-96 hours, #2 male",1.6
same,"Excretion of Radioactivity, Cage Wash","72-96 hours, #3 male",0.3
same,"Excretion of Radioactivity, Feces","72-96 hours, #3 male",8.0
same,"Excretion of Radioactivity, Urine","72-96 hours, #3 male",2.0
same,"Excretion of Radioactivity, Cage Wash","72-96 hours, Mean",0.2
same,"Excretion of Radioactivity, Feces","72-96 hours, Mean",7.8
same,"Excretion of Radioactivity, Urine","72-96 hours, Mean",1.6
same,"Excretion of Radioactivity, Cage Wash","96-120 hours, #1 male",0.1
same,"Excretion of Radioactivity, Feces","96-120 hours, #1 male",5.5
same,"Excretion of Radioactivity, Urine","96-120 hours, #1 male",1.2
same,"Excretion of Radioactivity, Cage Wash","96-120 hours, #2 male",0.2
same,"Excretion of Radioactivity, Feces","96-120 hours, #2 male",4.1
same,"Excretion of Radioactivity, Urine","96-120 hours, #2 male",1.5
same,"Excretion of Radioactivity, Cage Wash","96-120 hours, #3 male",0.2
same,"Excretion of Radioactivity, Feces","96-120 hours, #3 male",6.4
same,"Excretion of Radioactivity, Urine","96-120 hours, #3 male",1.6
same,"Excretion of Radioactivity, Cage Wash","96-120 hours, Mean",0.2
same,"Excretion of Radioactivity, Feces","96-120 hours, Mean",5.3
same,"Excretion of Radioactivity, Urine","96-120 hours, Mean",1.4
same,"Excretion of Radioactivity, Cage Wash","120-144 hours, #1 male",0.1
same,"Excretion of Radioactivity, Feces","120-144 hours, #1 male",3.5
same,"Excretion of Radioactivity, Urine","120-144 hours, #1 male",0.9
same,"Excretion of Radioactivity, Cage Wash","120-144 hours, #2 male",0.1
same,"Excretion of Radioactivity, Feces","120-144 hours, #2 male",3.5
same,"Excretion of Radioactivity, Urine","120-144 hours, #2 male",1.3
same,"Excretion of Radioactivity, Cage Wash","120-144 hours, #3 male",0.3
same,"Excretion of Radioactivity, Feces","120-144 hours, #3 male",4.3
same,"Excretion of Radioactivity, Urine","120-144 hours, #3 male",1.3
same,"Excretion of Radioactivity, Cage Wash","120-144 hours, Mean",0.2
same,"Excretion of Radioactivity, Feces","120-144 hours, Mean",3.8
same,"Excretion of Radioactivity, Urine","120-144 hours, Mean",1.2
same,"Excretion of Radioactivity, Urine","144-162 hours, #1 male",0.8
same,"Excretion of Radioactivity, Urine","144-162 hours, #2 male",1.0
same,"Excretion of Radioactivity, Urine","144-162 hours, #3 male",1.2
same,"Excretion of Radioactivity, Urine","144-162 hours, Mean",1.0
same,"Excretion of Radioactivity, Cage Wash","144-168 hours, #1 male",0.2
same,"Excretion of Radioactivity, Feces","144-168 hours, #1 male",3.0
same,"Excretion of Radioactivity, Cage Wash","144-168 hours, #2 male",0.2
same,"Excretion of Radioactivity, Feces","144-168 hours, #2 male",3.2
same,"Excretion of Radioactivity, Cage Wash","144-168 hours, #3 male",0.2
same,"Excretion of Radioactivity, Feces","144-168 hours, #3 male",3.1
same,"Excretion of Radioactivity, Cage Wash","144-168 hours, Mean",0.2
same,"Excretion of Radioactivity, Feces","144-168 hours, Mean",3.1
same,"Recovery of Radioactivity, Total","168 hour collection period, #1 male",96.7 % administered dose
same,"Recovery of Radioactivity, Total","168 hour collection period, #2 male",103.0 % administered dose
same,"Recovery of Radioactivity, Cage Washings",[1],*1.3 % administered dose
same,"Recovery of Radioactivity, Total",[1],103.2 % administered dose
same,"Recovery of Radioactivity, Total","168 hour collection period, Mean",101.0 % administered dose
same,"Recovery of Radioactivity, Expired air 1",#1 male,*<0.1 % administered dose
same,"Recovery of Radioactivity, Expired air 2",#1 male,*<0.1 % administered dose
same,"Recovery of Radioactivity, Expired air 1",#2 male,*<0.1 % administered dose
same,"Recovery of Radioactivity, Expired air 2",#2 male,*<0.1 % administered dose
same,"Recovery of Radioactivity, Expired air 1",#3 male,*<0.1 % administered dose
same,"Recovery of Radioactivity, Expired air 2",#3 male,*<0.1 % administered dose
same,"Recovery of Radioactivity, Expired air 1",Mean,^+<0.1 % administered dose
same,"Recovery of Radioactivity, Expired air 2",Mean,^+<0.1 % administered dose
same,"Recovery of Radioactivity, Carcass",#1 male,11.3 % administered dose
same,"Recovery of Radioactivity, GI Tract",#1 male,13.8 % administered dose
same,"Recovery of Radioactivity, Carcass",#2 male,14.1 % administered dose
same,"Recovery of Radioactivity, GI Tract",#2 male,13.3 % administered dose
same,"Recovery of Radioactivity, Carcass",#3 male,14.9 % administered dose
same,"Recovery of Radioactivity, GI Tract",#3 male,10.5 % administered dose
same,"Recovery of Radioactivity, Carcass",Mean,~13.5 % administered dose
same,"Recovery of Radioactivity, GI Tract",Mean,~12.5 % administered dose
same,Dose recovered in excreta and cage washings,"mean, full 168 hour collection period",75.0%
same,Administered radioactive dose recovered (total),"range over three rats, 168 hours",96.7-103.2%
same,Dose recovered in the excreta,up to 120 hours after dosing,~66 % of the dose

# Reference: patent US20070015780A1, “Method of treating cancer with azaspirane compositions” (priority 2003, published 2007)
